The values below come from US12209102B2, “Heterocyclic compounds and uses thereof” (Kumquat Biosciences Inc., priority 2022, dated 2025).

One test concerns the target T1, K-Ras G12V (Homo sapiens, UniProt P01116, G12V).
T1 construct: made in house; host or cells: E. coli BL21 (DE3)
Nature of the test: HTRF resonance energy transfer assay, K-Ras G12V / SOS1 interaction. Format: biochemical. The following applies: HTRF assay of Example 5; read-out: IC50 against K-Ras G12V. An outline of the steps:
(§1)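 Compounds, tested in duplicate at 10 μM down to 0.01 μM, were read after about 10 min or more by HTRF as the 665/620 nm emission ratio (337 nm excitation) to derive IC50. This ratio reports FRET between an anti-GST-Eu donor on GST-K-Ras (wild-type or mutant) and an anti-6His-XL665 acceptor on His-hSOS1. Buffer: ~5 mM HEPES pH 7.4, 150 mM NaCl, 1 mM DTT, 0.05% BSA, 0.0025% Igepal.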

Another test deals with SW620 cells. As to the kind of experiment: Ras cellular assay, growth of cells with K-Ras G12V mutation (CellTiter-Glo). Format: cell-based. The following applies: Homo sapiens, SW-620; cell growth, Example 9, G12V mutation; read-out: IC50 against SW620 cells. An outline of the steps:
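IC50 values came from a four-parameter fit of CellTiter-Glo viability, read roughly 6 days after dosing with e.g. a 10-point threefold dilution series. G12V-mutant SW620 cells (e.g. 800 per well) had been plated the previous day in RPMI-1640/10% heat-inactivated FBS, on tissue culture-treated or ultra-low attachment plates.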
Background: ATP-based viability assays read luminescence as a measure of living cells.

A further test deals with T2, K-Ras G12D (Homo sapiens, UniProt P01116, G12D).
T2 construct: made in house; host or cells: E. coli BL21 (DE3)
Nature of the test: HTRF resonance energy transfer assay, K-Ras G12D / SOS1 interaction. Format: biochemical. The following applies: HTRF assay of Example 5; read-out: IC50 against K-Ras G12D. An outline of the steps:
as §1

In a further test the target is T3, K-Ras G12S (Homo sapiens, UniProt P01116, G12S).
T3 construct: made in house; host or cells: E. coli BL21 (DE3)
Nature of the test: HTRF resonance energy transfer assay, K-Ras G12S / SOS1 interaction. The note with it: HTRF assay of Example 5; read-out: IC50 against K-Ras G12S. The test is classed as biochemical. A digest of the protocol:
as §1
On the technique in general: TR-FRET usually uses a lanthanide donor and a delayed reading to cut background.

The subject of a further test is A549 cells. As to the kind of experiment: Ras cellular assay, growth of cells with K-Ras G12S mutation (CellTiter-Glo). The test is classed as cell-based. The following applies: Homo sapiens, cell growth, Example 9, G12S mutation, read-out: IC50 against A549 cells. A digest of the protocol:
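Growth inhibition IC50 values come from four-parameter fits of CellTiter-Glo luminescence, read about 6 days after compound addition. G12S-mutant A549 cells (e.g. 800/well, RPMI-1640 + 10% heat-inactivated FBS) were plated in tissue-culture-treated or ultra-low-attachment 384-well format. Dosing began the following day with serial dilutions, e.g. 10 points, 3-fold.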

The next test concerns the target T4, K-Ras WT (Homo sapiens, UniProt P01116).
T4 construct: made in house; host or cells: E. coli BL21 (DE3)
As to the kind of experiment: HTRF resonance energy transfer assay, K-Ras WT / SOS1 interaction. Format: biochemical. The note with it: HTRF assay of Example 5; read-out: IC50 against K-Ras WT. An outline of the steps:
as §1

In general, IC50 refers to the point on the concentration scale where inhibition reaches its midpoint.

T4 sequence (P01116 1-188 isoform P01116-2): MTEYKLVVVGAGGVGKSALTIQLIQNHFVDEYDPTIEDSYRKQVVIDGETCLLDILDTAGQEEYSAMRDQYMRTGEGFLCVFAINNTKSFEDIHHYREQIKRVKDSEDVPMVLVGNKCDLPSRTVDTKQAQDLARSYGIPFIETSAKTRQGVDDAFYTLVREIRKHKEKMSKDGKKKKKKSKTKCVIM
T3 sequence (P01116 1-188 isoform P01116-2 G12S): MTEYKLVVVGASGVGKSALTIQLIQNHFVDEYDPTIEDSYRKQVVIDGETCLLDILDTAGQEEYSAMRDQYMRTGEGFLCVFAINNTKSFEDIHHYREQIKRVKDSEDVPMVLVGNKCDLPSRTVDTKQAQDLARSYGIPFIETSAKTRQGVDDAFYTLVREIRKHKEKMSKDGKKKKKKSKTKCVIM
T1 sequence (P01116 1-188 isoform P01116-2 G12V): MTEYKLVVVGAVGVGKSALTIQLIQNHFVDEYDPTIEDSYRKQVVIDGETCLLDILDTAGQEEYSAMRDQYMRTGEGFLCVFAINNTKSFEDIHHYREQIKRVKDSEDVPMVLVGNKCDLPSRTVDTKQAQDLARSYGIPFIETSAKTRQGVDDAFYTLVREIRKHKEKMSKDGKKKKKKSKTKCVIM
T2 sequence (P01116 1-188 isoform P01116-2 G12D): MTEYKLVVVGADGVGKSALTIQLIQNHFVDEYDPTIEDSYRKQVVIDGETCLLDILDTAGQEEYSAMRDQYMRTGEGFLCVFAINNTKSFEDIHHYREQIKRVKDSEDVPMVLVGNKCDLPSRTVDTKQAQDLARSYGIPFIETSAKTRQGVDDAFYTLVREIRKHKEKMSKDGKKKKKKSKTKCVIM

As to `C[C@H](Oc1nc2c3c(c(Cl)c(-c4ccc(F)c5sc(N)c(C#N)c45)c(F)c3n1)OCCN2C1CCCN(C(=O)C2CCC2)C1)[C@@H]1CCCN1C` (stereo partly drawn) [Compound 862, 2-amino-4-(8-chloro-4-(1-(cyclobutanecarbonyl)piperidin-3-yl)-10-fluoro-2-((S)-1-((S)-1-methylpyrrolidin-2-yl)ethoxy)-5,6-dihydro-4H-[1,4]oxazepino[5,6,7-de]quinazolin-9-yl)-7-fluorobenzo[b]thiophene-3-carbonitrile], the IC50 was less than 100 nM on K-Ras G12V; less than 5000 nM with SW620 cells; less than 100 nM at K-Ras G12D; less than 100 nM at K-Ras G12S; less than 5000 nM in the test on A549 cells; less than 100 nM on K-Ras WT.
With `C[C@H](Oc1nc2c3c(c(Cl)c(-c4ccc(F)c5sc(N)c(C#N)c45)c(F)c3n1)OCCN2C1CCCOC1)[C@@H]1CCCN1C` (stereo partly drawn) [Compound 880, 2-amino-4-(8-chloro-10-fluoro-2-((S)-1-((S)-1-methylpyrrolidin-2-yl)ethoxy)-4-(tetrahydro-2H-pyran-3-yl)-5,6-dihydro-4H-[1,4]oxazepino[5,6,7-de]quinazolin-9-yl)-7-fluorobenzo[b]thiophene-3-carbonitrile], the half-inhibitory concentration (IC50) is less than 100 nM at K-Ras G12V; less than 5000 nM in the test on SW620 cells; less than 100 nM on K-Ras G12D; less than 100 nM at K-Ras G12S; less than 5000 nM in the test with A549 cells; less than 100 nM at K-Ras WT.
For `COCC1COc2c(Cl)c(-c3ccc(F)c4sc(N)c(C#N)c34)c(F)c3nc(OC[C@@]45CCCN4C[C@H](F)C5)nc(c23)N1C` (stereo partly drawn) [Compound 887, 2-amino-4-(8-chloro-10-fluoro-2-(((2R,7aS)-2-fluorotetrahydro-1H-pyrrolizin-7a(5H)-yl)methoxy)-5-(methoxymethyl)-4-methyl-5,6-dihydro-4H-[1,4]oxazepino[5,6,7-de]quinazolin-9-yl)-7-fluorobenzo[b]thiophene-3-carbonitrile], the half-maximal inhibitory concentration (IC50) at K-Ras G12V was less than 100 nM; with SW620 cells it was less than 5000 nM; at K-Ras G12D, less than 100 nM; at K-Ras G12S, less than 100 nM; in the test with A549 cells, less than 5000 nM; on K-Ras WT, less than 100 nM.
In the case of `CN(CCN1CCOc2c(Cl)c(-c3ccc(F)c4sc(N)c(C#N)c34)c(F)c3nc(OC[C@@]45CCCN4C[C@H](F)C5)nc1c23)C(=O)C1CCC1` [Compound 895, N-(2-(9-(2-amino-3-cyano-7-fluorobenzo[b]thiophen-4-yl)-8-chloro-10-fluoro-2-(((2R,7aS)-2-fluorotetrahydro-1H-pyrrolizin-7a(5H)-yl)methoxy)-5,6-dihydro-4H-[1,4]oxazepino[5,6,7-de]quinazolin-4-yl)ethyl)-N-methylcyclobutanecarboxamide], the IC50 on K-Ras G12V is less than 100 nM; in the test with SW620 cells, less than 5000 nM; on K-Ras G12D, less than 100 nM; at K-Ras G12S it was less than 100 nM; in the test with A549 cells it was less than 5000 nM; at K-Ras WT, less than 100 nM.
In the case of `N#Cc1c(N)sc2c(F)ccc(-c3c(Cl)c4c5c(nc(OC[C@@]67CCCN6C[C@H](F)C7)nc5c3F)N(Cc3cccnc3)CCO4)c12` [Compound 897, 2-amino-4-(8-chloro-10-fluoro-2-(((2R,7aS)-2-fluorotetrahydro-1H-pyrrolizin-7a(5H)-yl)methoxy)-4-(pyridin-3-ylmethyl)-5,6-dihydro-4H-[1,4]oxazepino[5,6,7-de]quinazolin-9-yl)-7-fluorobenzo[b]thiophene-3-carbonitrile], the IC50 on K-Ras G12V is less than 100 nM; with SW620 cells it was less than 5000 nM; at K-Ras G12D, less than 100 nM; at K-Ras G12S it was less than 100 nM; in the test on A549 cells, less than 5000 nM; on K-Ras WT it was less than 100 nM.
With `N#Cc1c(N)sc2c(F)ccc(-c3c(Cl)c4c5c(nc(OCC67CCCN6C[C@H](F)C7)nc5c3F)N(C3CCCOCC3)CCO4)c12` (stereo partly drawn) [Compound 902, 2-amino-4-(8-chloro-10-fluoro-2-(((2R)-2-fluorotetrahydro-1H-pyrrolizin-7a(5H)-yl)methoxy)-4-(oxepan-4-yl)-5,6-dihydro-4H-[1,4]oxazepino[5,6,7-de]quinazolin-9-yl)-7-fluorobenzo[b]thiophene-3-carbonitrile], the IC50 at K-Ras G12V was less than 100 nM; in the test with SW620 cells, less than 5000 nM; at K-Ras G12D, less than 100 nM; on K-Ras G12S, less than 100 nM; in the test with A549 cells, less than 5000 nM; on K-Ras WT, less than 100 nM.
`Cc1cc(N)nc(-c2c(Cl)c3c4c(nc(OC[C@@]56CCCN5C[C@H](F)C6)nc4c2F)N(CC(F)F)CCO3)c1I` [Compound 909, 6-(8-chloro-4-(2,2-difluoroethyl)-10-fluoro-2-(((2R,7aS)-2-fluorotetrahydro-1H-pyrrolizin-7a(5H)-yl)methoxy)-5,6-dihydro-4H-[1,4]oxazepino[5,6,7-de]quinazolin-9-yl)-5-iodo-4-methylpyridin-2-amine]: the IC50 is less than 100 nM on K-Ras G12V; less than 5000 nM with SW620 cells; less than 100 nM on K-Ras G12D; less than 100 nM on K-Ras G12S; less than 5000 nM in the test on A549 cells; less than 100 nM at K-Ras WT.
With `N#Cc1c(N)sc2c(F)ccc(-c3c(Cl)c4c5c(nc(OC[C@@]67CCCN6C[C@H](F)C7)nc5c3F)N(C3CCC(NC(=O)[C@@H]5N[C@H]5C5CC5)C3)CCO4)c12` (stereo partly drawn) [Compound 920, (2R,3S)—N-(3-(9-(2-amino-3-cyano-7-fluorobenzo[b]thiophen-4-yl)-8-chloro-10-fluoro-2-(((2R,7aS)-2-fluorotetrahydro-1H-pyrrolizin-7a(5H)-yl)methoxy)-5,6-dihydro-4H-[1,4]oxazepino[5,6,7-de]quinazolin-4-yl)cyclopentyl)-3-cyclopropylaziridine-2-carboxamide], the half-maximal inhibitory concentration (IC50) at K-Ras G12V is less than 100 nM; in the test on SW620 cells, less than 5000 nM; on K-Ras G12D, less than 100 nM; at K-Ras G12S, less than 100 nM; with A549 cells, less than 5000 nM; at K-Ras WT, less than 100 nM.
`N#Cc1c(N)sc2c(F)ccc(-c3c(Cl)c4c5c(nc(OC[C@@]67CCCN6C[C@H](F)C7)nc5c3F)N(C3CCN(S(=O)(=O)C5CC5)C3)CCO4)c12` (stereo partly drawn) [Compound 922, 2-amino-4-(8-chloro-4-(1-(cyclopropylsulfonyl)pyrrolidin-3-yl)-10-fluoro-2-(((2R,7aS)-2—fluorotetrahydro-1H-pyrrolizin-7a(5H)-yl)methoxy)-5,6-dihydro-4H-[1,4]oxazepino[5,6,7-de]quinazolin-9-yl)-7-fluorobenzo[b]thiophene-3-carbonitrile]: the 50% inhibitory concentration (IC50) on K-Ras G12V is less than 100 nM; in the test on SW620 cells, less than 5000 nM; at K-Ras G12D, less than 100 nM; on K-Ras G12S, less than 100 nM; in the test on A549 cells it was less than 5000 nM; at K-Ras WT it was less than 100 nM.
`C[C@H](Oc1nc2c3c(c(Cl)c(-c4ccc(F)c5sc(N)c(C#N)c45)c(F)c3n1)OCCN2C1CCOC1)[C@@H]1CCCN1C` (stereo partly drawn) [Compound 924, 2-amino-4-(8-chloro-10-fluoro-2-((S)-1-((S)-1-methylpyrrolidin-2-yl)ethoxy)-4-(tetrahydrofuran-3-yl)-5,6-dihydro-4H-[1,4]oxazepino[5,6,7-de]quinazolin-9-yl)-7-fluorobenzo[b]thiophene-3-carbonitrile]: the IC50 at K-Ras G12V was less than 100 nM; in the test on SW620 cells it was less than 5000 nM; on K-Ras G12D, less than 100 nM; at K-Ras G12S, less than 100 nM; with A549 cells, less than 5000 nM; on K-Ras WT, less than 100 nM.
With `CC1Oc2c(Cl)c(-c3ccc(F)c4sc(N)c(C#N)c34)c(F)c3nc(OC[C@@]45CCCN4C[C@H](F)C5)nc(c23)N(C2CC2)C1C` (stereo partly drawn) [Compound 929, 2-amino-4-(8-chloro-4-cyclopropyl-10-fluoro-2-(((2R,7aS)-2-fluorotetrahydro-1H-pyrrolizin-7a(5H)-yl)methoxy)-5,6-dimethyl-5,6-dihydro-4H-[1,4]oxazepino[5,6,7-de]quinazolin-9-yl)-7-fluorobenzo[b]thiophene-3-carbonitrile], the IC50 is less than 100 nM on K-Ras G12V; less than 5000 nM in the test on SW620 cells; less than 100 nM on K-Ras G12D; less than 100 nM at K-Ras G12S; less than 5000 nM in the test on A549 cells; less than 100 nM on K-Ras WT.
